Experimental data taken from ChEMBL document CHEMBL4813929, “Isolation, Structure Determination, and Total Synthesis of Hoshinoamide C, an Antiparasitic Lipopeptide from the Marine Cyanobacterium Caldora penicillata” (J Nat Prod, 2021).

What was measured:
[1] = test system: Trypanosoma brucei rhodesiense; assay: Antitrypanosomal activity against Trypanosoma brucei rhodesiense IL-1501 assessed as parasite growth inhibition incubated for 69 hrs by AlamarBlue assay; format: functional, organism-based; conditions: IL-1501, 69 h
Plasmodium falciparum = assay: Antiplasmodial activity against asexual Plasmodium falciparum 3D7 infected in human erythrocytes assessed as reduction in parasitemia measured after 72 hrs by LDH assay; format: functional, organism-based; conditions: 3D7, Erythrocyte
HL-60 = assay: Cytotoxicity against human HL-60 cells assessed as cell growth inhibition at 10 uM measured after 72 hrs by MTT assay; format: cell-based; conditions: hl-60, 72 h
HeLa = assay: Cytotoxicity against human HeLa cells assessed as cell growth inhibition at 10 uM measured after 72 hrs by MTT assay; format: cell-based

| Compound | IC50 [1] [nM] | IC50 (Plasmodium falciparum) [nM] | Activity (HL-60) | Activity (HeLa) |
| --- | --- | --- | --- | --- |
| CC[C@H](C)[C@H](C(=O)N[C@@H](CCC(N)=O)C(=O)N[C@H](C(=O)N(C)[C@H](Cc1ccccc1)C(=O)N1CCC[C@H]1C(=O)OC)C(C)C)N(C)C(=O)[C@H](CC(C)C)NC(=O)CC[C@H](C)CCCCNC(=O)CCCc1ccc(O)cc1 | 2900 | 960 | Non-Toxic | Non-Toxic |
| CC[C@H](C)[C@H](C(=O)N[C@@H](CCC(N)=O)C(=O)N[C@H](C(=O)N(C)[C@H](Cc1ccccc1)C(=O)N1CCC[C@H]1C(=O)OC)C(C)C)N(C)C(=O)[C@H](CC(C)C)NC(=O)CC[C@@H](C)CCCCNC(=O)CCCc1ccc(O)cc1 | 4400 | 870 | Non-Toxic | Non-Toxic |
| O=C1C(O)=C([C@H]2CC[C@H](c3ccc(Cl)cc3)CC2)C(=O)c2ccccc21 [ATOVAQUONE] | – | 0.96 | – | – |
| N=C(N)c1ccc(OCCCCCOc2ccc(C(=N)N)cc2)cc1 [PENTAMIDINE] | 1 | – | – | – |
